# Measured values: patent publication US20110105565A1, “WATER SOLUBLE SMALL MOLECULE INHIBITORS OF THE CYSTIC FIBROSIS TRANSMEMBRANE CONDUCTANCE REGULATOR” (THE REGENTS OF THE UNIVERSITY OF CALIFORNIA, priority 2008, published 2011)
# Read-outs that look alike come from different tables or passages of the source.
# Molecular target: human wildtype CFTR (Homo sapiens, UniProt P13569)
# Experiment: Fluorescence cell-based assay of CFTR inhibition (YFP iodide influx, FRT cells)
# Parameters: expressed in transfected cells; host or cells: Fisher rat thyroid (FRT) cells
# Conditions: for CFTR inhibitory activity (in words): structure-activity discussion
# [1] = Table 1, upper part, CFTR inhibitory activity, given as ranges, read-out: IC50
# [2] = Table 2 summary table, given as ranges, read-out: IC50
# [3] = Tables 1 and 2, read-out: IC50 (CFTR inhibition)
# [4] = Table 1, lower parts, given as ranges, read-out: IC50
# Chain of human wildtype CFTR (P13569 whole entry): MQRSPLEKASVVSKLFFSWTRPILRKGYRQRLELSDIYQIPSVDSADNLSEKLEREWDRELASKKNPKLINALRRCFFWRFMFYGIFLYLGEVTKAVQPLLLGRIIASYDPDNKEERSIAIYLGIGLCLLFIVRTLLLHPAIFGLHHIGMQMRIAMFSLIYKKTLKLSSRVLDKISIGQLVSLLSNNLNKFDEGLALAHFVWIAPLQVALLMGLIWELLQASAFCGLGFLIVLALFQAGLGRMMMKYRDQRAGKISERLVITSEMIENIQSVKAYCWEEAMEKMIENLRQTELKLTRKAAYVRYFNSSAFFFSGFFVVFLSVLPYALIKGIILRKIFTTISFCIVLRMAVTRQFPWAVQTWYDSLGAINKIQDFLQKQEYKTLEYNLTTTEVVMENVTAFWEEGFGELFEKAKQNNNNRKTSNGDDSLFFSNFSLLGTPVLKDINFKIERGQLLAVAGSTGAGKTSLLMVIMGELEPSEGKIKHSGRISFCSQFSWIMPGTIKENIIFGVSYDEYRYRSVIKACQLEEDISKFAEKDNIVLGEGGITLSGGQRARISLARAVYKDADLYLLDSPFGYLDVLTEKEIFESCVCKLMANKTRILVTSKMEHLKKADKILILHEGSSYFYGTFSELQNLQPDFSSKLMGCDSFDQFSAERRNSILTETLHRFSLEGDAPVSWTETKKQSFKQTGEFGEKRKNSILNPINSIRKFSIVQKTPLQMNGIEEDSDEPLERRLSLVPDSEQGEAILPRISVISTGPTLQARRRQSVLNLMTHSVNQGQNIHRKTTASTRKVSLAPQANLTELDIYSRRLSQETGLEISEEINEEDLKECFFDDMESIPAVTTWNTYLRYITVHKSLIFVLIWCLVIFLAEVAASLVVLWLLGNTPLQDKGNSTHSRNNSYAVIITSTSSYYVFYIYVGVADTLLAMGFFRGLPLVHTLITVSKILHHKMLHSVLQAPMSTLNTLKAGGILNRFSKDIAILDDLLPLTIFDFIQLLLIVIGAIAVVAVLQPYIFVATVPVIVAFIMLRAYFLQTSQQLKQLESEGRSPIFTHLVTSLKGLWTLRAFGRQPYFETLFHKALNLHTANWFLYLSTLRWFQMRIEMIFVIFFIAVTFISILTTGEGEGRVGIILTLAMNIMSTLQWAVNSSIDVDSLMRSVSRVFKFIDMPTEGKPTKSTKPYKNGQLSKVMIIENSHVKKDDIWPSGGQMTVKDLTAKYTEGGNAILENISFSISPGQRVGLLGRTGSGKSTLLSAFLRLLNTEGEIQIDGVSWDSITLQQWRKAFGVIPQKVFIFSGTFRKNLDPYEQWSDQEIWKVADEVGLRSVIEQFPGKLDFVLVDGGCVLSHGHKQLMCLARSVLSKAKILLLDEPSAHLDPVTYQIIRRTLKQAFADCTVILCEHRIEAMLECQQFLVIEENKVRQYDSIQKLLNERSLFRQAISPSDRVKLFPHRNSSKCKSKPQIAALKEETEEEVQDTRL
IC50 [1] [µM],IC50 [2] [µM],IC50 [3] [µM],CFTR inhibitory activity (in words),IC50 [4] [µM],SMILES
1 to 2,1 to 2,–,–,–,"O=C(O)c1cc(/C=C2\SC(=S)N(c3cccc(C(F)(F)F)c3)C2=O)ccc1O [Compound 7, (Z)-2-hydroxy-5-((4-oxo-2-thioxo-3-(3-(trifluoromethyl)phenyl)thiazolidin-5-ylidene)methyl)benzoic acid]"
1 to 2,1 to 2,–,–,–,"O=C(O)c1ccc(/C=C2\SC(=S)N(c3ccc(F)c(C(F)(F)F)c3)C2=O)cc1 [Compound 8, (Z)-4-((3-(4-fluoro-3-(trifluoromethyl)phenyl)-4-oxo-2-thioxothiazolidin-5 ylidene)methyl)benzoic acid]"
1 to 2,1 to 2,–,–,–,"O=C(O)c1cccc(/C=C2\SC(=S)N(c3cccc(C(F)(F)F)c3)C2=O)c1 [Compound 9, (Z)-3-((4-oxo-2-thioxo-3-(3-(trifluoromethyl)phenyl)thiazolidin-5-ylidene)methyl)benzoic acid]"
2 to 3,2 to 3,2.6,–,–,"O=C(O)COc1ccc(/C=C2\SC(=S)N(c3cccc(C(F)(F)F)c3)C2=O)cc1 [Compound 10, (Z)-2-(4-((4-oxo-2-thioxo-3-(3-(trifluoromethyl)phenyl)thiazolidin-5-ylidene)methyl)phenoxy) acetic acid]"
5 to 10,5 to 10,–,–,–,"O=C(O)c1cccc(/C=C2\SC(=S)N(c3ccc(F)c(C(F)(F)F)c3)C2=O)c1 [Compound 11, (Z)-3-((3-(4-fluoro-3-(trifluoromethyl)phenyl)-4-oxo-2-thioxothiazolidin-5-ylidene)methyl)benzoic acid]"
5 to 10,5 to 10,–,–,–,"Cc1cccc(N2C(=O)/C(=C/c3ccc(C(=O)O)cc3)SC2=S)c1 [Compound 12, (Z)-4-((4-oxo-2-thioxo-3-m-tolylthiazolidin-5-ylidene)methyl)benzoic acid]"
5 to 10,5 to 10,–,–,–,"Cc1cccc(N2C(=O)/C(=C/c3ccc(C(=O)O)cc3)SC2=S)c1C [Compound 13, (Z)-4-((3-(2,3-dimethylphenyl)-4-oxo-2-thioxothiazolidin-5-ylidene)methyl)benzoic acid]"
5 to 10,5 to 10,–,modest inhibition activity,–,"O=C1/C(=C/c2cc(Br)c(O)c(Br)c2)SC(=S)N1c1cccc(C(F)(F)F)c1 [Compound 14, (Z)-5-(3,5-dibromo-4-hydroxybenzylidene)-2-thioxo-3-(3-(trifluoromethyl)phenyl) thiazolidin-4-one]"
7 to 9,7 to 9,–,–,–,"O=C(O)c1ccc(/C=C2\SC(=S)N(c3cccc(C(F)(F)F)c3)C2=O)c(O)c1 [Compound 16, (Z)-3-hydroxy-4-((4-oxo-2-thioxo-3-(3-(trifluoromethyl)phenyl)thiazolidin-5-ylidene)methyl)benzoic acid]"
10 to 20,10 to 20,–,low activity,–,"O=C1/C(=C/c2cc(O)c(O)c(O)c2)SC(=S)N1c1cccc(C(F)(F)F)c1 [Compound 19, (Z)-2-thioxo-3-(3-(trifluoromethyl)phenyl)-5-(3,4,5-trihydroxybenzylidene) thiazolidin-4-one]"
10 to 20,10 to 20,–,–,–,"O=C(O)c1ccc(/C=C2\SC(=S)N(c3ccccc3C(F)(F)F)C2=O)cc1 [Compound 20, (Z)-4-((4-oxo-2-thioxo-3-(2-(trifluoromethyl)phenyl)thiazolidin-5-ylidene)methyl)benzoic acid]"
10 to 20,10 to 20,–,–,–,"O=C(O)c1cccc(/C=C2\SC(=S)N(c3ccc(C(F)(F)F)cc3)C2=O)c1 [Compound 21, (Z)-3-((4-oxo-2-thioxo-3-(4-(trifluoromethyl)phenyl)thiazolidin-5-ylidene)methyl)benzoic acid]"
10 to 20,10 to 20,–,–,–,"O=C(O)c1cc(/C=C2\SC(=S)N(c3ccccc3C(F)(F)F)C2=O)ccc1O [Compound 22, (Z)-2-hydroxy-5-((4-oxo-2-thioxo-3-(2-(trifluoromethyl)phenyl)thiazolidin-5-ylidene)methyl)benzoic acid]"
10 to 20,10 to 20,–,–,–,"O=C(O)c1ccc(/C=C2\SC(=S)N(c3cc(C(F)(F)F)cc(C(F)(F)F)c3)C2=O)cc1 [Compound 23, (Z)-4-((3-(3,5-bis(trifluoromethyl)phenyl)-4-oxo-2-thioxothiazolidin-5-ylidene)methyl)benzoic acid]"
10 to 20,10 to 20,–,–,–,"O=C(O)c1ccc(/C=C2\SC(=S)N(c3ccc(Cl)c(C(F)(F)F)c3)C2=O)cc1 [Compound 24, (Z)-4-((3-(4-chloro-3-(trifluoromethyl)phenyl)-4-oxo-2-thioxothiazolidin-5-ylidene)methyl)benzoic acid]"
10 to 20,10 to 20,–,–,–,"O=C(O)c1ccc(/C=C2\SC(=S)N(c3ccc(C(F)(F)F)cc3)C2=O)cc1 [Compound 25, (Z)-4-((4-oxo-2-thioxo-3-(4-(trifluoromethyl)phenyl)thiazolidin-5-ylidene)methyl)benzoic acid]"
10 to 20,10 to 20,–,–,–,"O=C(O)c1ccccc1/C=C1\SC(=S)N(c2cccc(C(F)(F)F)c2)C1=O [Compound 26, (Z)-2-((4-oxo-2-thioxo-3-(3-(trifluoromethyl)phenyl)thiazolidin-5-ylidene)methyl)benzoic acid]"
10 to 20,10 to 20,–,–,–,"O=C(O)c1ccccc1/C=C1\SC(=S)N(c2ccccc2C(F)(F)F)C1=O [Compound 27, (Z)-2-((4-oxo-2-thioxo-3-(2-(trifluoromethyl)phenyl)thiazolidin-5-ylidene)methyl)benzoic acid]"
10 to 20,10 to 20,–,–,–,"O=C(O)c1cccc(/C=C2\SC(=S)N(c3ccccc3C(F)(F)F)C2=O)c1 [Compound 28, (Z)-3-((4-oxo-2-thioxo-3-(2-(trifluoromethyl)phenyl)thiazolidin-5-ylidene)methyl)benzoic acid]"
10 to 20,10 to 20,–,–,–,"O=C(O)c1ccccc1/C=C1\SC(=S)N(c2ccc(C(F)(F)F)cc2)C1=O [Compound 29, (Z)-2-((4-oxo-2-thioxo-3-(4-(trifluoromethyl)phenyl)thiazolidin-5-ylidene)methyl)benzoic acid]"
20 to 30,20 to 30,–,low activity,–,"O=C1/C(=C/c2ccc(O)cc2)SC(=S)N1c1cccc(C(F)(F)F)c1 [Compound 31, (Z)-5-(4-hydroxybenzylidene)-2-thioxo-3-(3-(trifluoromethyl)phenyl) thiazolidin-4-one]"
20 to 30,20 to 30,–,–,–,"O=C(O)c1cc(/C=C2\SC(=S)N(c3ccc(C(F)(F)F)cc3)C2=O)ccc1O [Compound 32, (Z)-2-hydroxy-5-((4-oxo-2-thioxo-3-(4-(trifluoromethyl)phenyl)thiazolidin-5-ylidene)methyl)benzoic acid]"
–,20 to 30,20 to 30,inactive,–,"O=C1/C(=C/c2ccncc2)SC(=S)N1c1cccc(C(F)(F)F)c1 [Compound 33, (Z)-5-(pyridin-4-ylmethylene)-2-thioxo-3-(3-(trifluoromethyl)phenyl) thiazolidin-4-one]"
20 to 30,20 to 30,–,low activity,–,"O=C1/C(=C/c2ccc(O)c(O)c2O)SC(=S)N1c1cccc(C(F)(F)F)c1 [Compound 34, (Z)-2-thioxo-3-(3-(trifluoromethyl)phenyl)-5-(2,3,4-trihydroxybenzylidene) thiazolidin-4-one]"
20 to 30,20 to 30,–,–,–,"O=C(O)COc1cccc(/C=C2\SC(=S)N(c3cccc(C(F)(F)F)c3)C2=O)c1 [Compound 36, (Z)-2-(3-((4-oxo-2-thioxo-3-(3-(trifluoromethyl)phenyl)thiazolidin-5-ylidene)methyl)phenoxy) acetic acid]"
–,10 to 20,–,–,10 to 20,"O=C1S/C(=C\c2ccc(-c3nn[nH]n3)cc2)C(=O)N1c1cccc(C(F)(F)F)c1 [Compound 48, (Z)-5-(4-(1H-tetrazol-5-yl)benzylidene)-3-(3-(trifluoromethyl)phenyl) thiazolidine-2,4-dione]"
–,5 to 10,~7,–,5 to 10,"O=C(O)c1ccc(SC2CC(=O)N(c3cccc(C(F)(F)F)c3)C2=O)cc1 (stereo not shown) [Compound 50, 4-(2,5-dioxo-1-(3-(trifluoromethyl)phenyl)pyrrolidin-3-ylthio)benzoic acid]"
–,5 to 10,–,–,5 to 10,"O=C(O)c1ccc(NC(=S)C2SC(=S)N(c3cccc(C(F)(F)F)c3)C2=O)cc1 (stereo not shown) [Compound 51, 4-(4-oxo-2-thioxo-3-(3-(trifluoromethyl)phenyl)thiazolidine-5-carbothioamido)benzoic acid]"
–,–,–,inactive,–,O=C(O)c1ccc(CC2SC(=S)N(c3cccc(C(F)(F)F)c3)C2=O)cc1 (stereo not shown) [Compound 56]

SMILES,IC50 [1] [µM],IC50 [2] [µM],IC50 [3] [µM],CFTR inhibitory activity (in words),IC50 [4] [µM]
"O=C1/C(=C/c2ccc(S(=O)(=O)[O-])cc2)SC(=S)N1c1cccc(C(F)(F)F)c1.[Na+] [Compound 35, sodium (Z)-4-((4-oxo-2-thioxo-3-(3-(trifluoromethyl)phenyl)thiazolidin-5-ylidene)methyl) benzenesulfonate]",20 to 30,20 to 30,–,inactive,–
